For 8 compounds, EC50 and inhibition results are on record in patent US10519169B2, “3-(1H-pyrrolo[2,3-C]pyridin-2-yl)-1 H-pyrazolo[4,3-B]pyridines and therapeutic uses thereof” (Samumed, LLC, priority 2015, dated 2019).

What all share (type): cell-based
The subject of test [1] is primary human fibroblasts derived from IPF patients (LL29 cells) treated with TGF-β1. Put plainly: Inhibition of fibrotic process, αSMA staining in TGF-β1 treated LL29 fibroblasts. The following applies: Fibroblast; for EC50: 96 h, TGF-β1 20 ng/mL, 4 days, % cells positive for αSMA. An excerpt: Representative compounds were screened using primary human fibroblasts (derived from IPF patients) treated with TGF-β1 to determine their ability to inhibit the fibrotic process.
Primary human fibroblasts derived from IPF patients (LL29 cells) [^1Xiaoqiu Liu, et. al., “Fibrotic Lung Fibroblasts Show Blunted Inhibition by cAMP Due to Deficient cAMP Response Element-Binding Protein Phosphorylation”, Journal of Pharmacology and Experimental Therapeutics (2005), 315(2), 678-687; ^2Watts, K. L., et. al., “RhoA signaling modulates cyclin D1 expression in human lung fibroblasts; implications for idiopathic pulmonary fibrosis”, Respiratory Research (2006), 7(1), 88] were obtained from American Type Culture Collection (ATCC) and expanded in F12 medium supplemented with 15% Fetal Bovine Serum and Penicillin/Streptomycin.
Each compound was dissolved in DMSO as a 10 mM stock and used to prepare compound source plates. Serial dilution (1:2, 11-point dose-response curves from […] to […]) and compound transfer was performed using the ECHO 550 (Labcyte, Sunnyvale, Calif.) into 384-well clear bottom assay plates (Greiner Bio-One) with appropriate DMSO backfill for a final DMSO concentration of 0.1%. LL29 cells are plated at 1,500 cells/well in 80 μL/well F12 medium supplemented with 1% Fetal Bovine Serum. One hour after addition of the cells, TGF-β1 (Peprotech; 20 ng/mL) was added to the plates to induce fibrosis (ref. 1 and 2 above). Wells treated with TGF-β1 and containing DMSO were used as controls. Cells were incubated at 37° C. and 5% CO2 for 4 days. Following incubation for 4 days, SYTOX green nucleic acid stain (Life Technologies [Thermo Fisher Scientific]) was added to the wells at a final concentration of 1 μM and incubated at room temperature for 30 min. Cells were then fixed using 4% formaldehyde (Electron Microscopy Sciences), washed 3 times with PBS followed by blocking and permeabilization using 3% Bovine Serum Albumin (BSA; Sigma) and 0.3% Triton X-100 (Sigma) in PBS. Cells were then stained with antibody specific to α-smooth muscle actin (aSMA; Abcam) (ref. 1 and 2 above) in 3% Bovine Serum Albumin (BSA; Sigma) and 0.3% Triton X-100 (Sigma) in PBS, and incubated overnight at 4° C. Cells were then washed 3 times with PBS, followed by incubation with Alexa Flor-647 conjugated secondary antibody (Life Technologies [Thermo Fisher Scientific]) and DAPI at room temperature for 1 hour. Cells were then washed 3 times with PBS and plates were sealed for imaging. aSMA staining was imaged by excitation at 630 nm and emission at 665 nm and quantified using the Compartmental Analysis program on the CellInsight CX5 (Thermo Scientific). Dead or apoptotic cells were excluded from analysis based on positive SYTOX green staining. % of total cells positive for aSMA were counted in each well and normalized to the average of 11 wells treated with TGF-β1 on the same plate using Dotmatics' Studies Software. The normalized averages (fold change over untreated) of 3 replicate wells for each compound concentration were used to create dose-responses curves and EC50 values were calculated using non-linear regression curve fit in the Dotmatics' Studies Software. For EC50 of >10 μM, the percent inhibition at 10 μM is provided.

A further test concerns SW480 colon cancer cells. Put plainly: Cell viability assay (CellTiter-Blue), SW480 cells. As to conditions: Homo sapiens, 96 h, four days, CellTiter-Blue. The procedure: Representative compounds were screened using the following assay procedure to assess the effect on cell viability as described below.
Each compound was dissolved in DMSO as a 10 mM stock and used to prepare compound source plates. Serial dilution (1:3, 8-point dose-response curves from […]) and compound transfer was performed using the ECHO 550 (Labcyte, Sunnyvale, Calif.) into 96-well clear bottom, black-walled plates (Corning-Costar).
Approximately 2×10^3 SW480 colon cancer cells were seeded into each well and allowed to incubate in the presence or absence of compound for four days at 37° C./5% CO2. Eight replicates of DMSO-treated cells served as controls and cells treated with compound were performed in duplicate.
After incubation, 20 μL of CellTiter-Blue (Promega) was added to each well allowed to incubate for approximately 3 hours. This reagent was a buffered solution which contains resazurin, metabolically active cells were able to reduce rezarurin (blue) into resorufin (pink) which was highly fluorescent. This measured fluorescence was used as a readout for cell viability.
After incubation, the plates were read at Ex 560 nm Em 590 nm (Cytation 3, BioTek). Dose-response curves were generated and EC50 concentration values were calculated using non-linear regression curve fit in the GraphPad Prism (San Diego, Calif.) or Dotmatics' Studies Software (Bishops Stortford, UK). For EC50 of >10 μM, the percent inhibition at 10 μM is provided.
(The colour change of resazurin is a common sign of viable cells or microbes.)

The subject of test [2] is Wnt activity (Sp5-Luc reporter, TCF/LEF binding sites) in SW480 colon carcinoma cells. Put plainly: Wnt activity screening assay, Sp5-Luc reporter gene in SW480 cells. The following applies: Homo sapiens, overnight incubation. The text has this: The screening assay for Wnt activity is described as follows. Reporter cell lines can be generated by stably transducing cancer cell lines (e.g., colon cancer) or primary cells (e.g., IEC-6 intestinal cells) with a lentiviral construct that includes a Wnt-responsive promoter driving expression of the firefly luciferase gene.
SW480 colon carcinoma cells were transduced with a lentiviral vector expressing luciferase with a human Sp5 promoter consisting of a sequence of eight TCF/LEF binding sites. SW480 cells stably expressing the Sp5-Luc reporter gene and a hygromycin resistance gene were selected by treatment with 150 μg/mL of hygromycin for 7 days. These stably transduced SW480 cells were expanded in cell culture and used for all further screening activities. Each compound was dissolved in DMSO as a 10 mM stock and used to prepare compound source plates. Serial dilution (1:3, 10-point dose-response curves starting from 10 μM) and compound transfer was performed using the ECHO 550 (Labcyte, Sunnyvale, Calif.) into 384-well white solid bottom assay plates (Greiner Bio-One) with appropriate DMSO backfill for a final DMSO concentration of 0.1%. For Sp5-Luc reporter gene assays, the cells were plated at 4,000 cells/well in 384-well plates with medium containing 1% fetal bovine serum and incubated overnight at 37° C. and 5% CO2. Following incubation, 20 μl of BrightGlo luminescence reagent (Promega) was added to each well of the 384-well assay plates. The plates were placed on an orbital shaker for 2 min and then luminescence was quantified using the Envision (Perkin Elmer) plate reader. Readings were normalized to DMSO only treated cells, and normalized activities were utilized for EC50 calculations using the dose-response log (inhibitor) vs. response-variable slope (four parameters) nonlinear regression feature available in GraphPad Prism 5.0 (or Dotmatics). For EC50 of >10 μM, the percent inhibition at 10 μM is provided.
(In a reporter assay the amount or activity of a reporter protein is the signal.)

The test system of another test is IL-6. Put plainly: IL-6 inhibition in LPS-stimulated THP-1 cells (HTRF). As to conditions: Homo sapiens; for EC50: LPS 500 ng/mL, 22 hours, IL6 HTRF; for inhibition at 10 µM: given for EC50 >10 μM, LPS, IL6, at 10 M [sic], read-out: percent inhibition at 10 M. The procedure:
Human monocyte cell line (THP-1 cells; Catalog # TIB-202, ATCC, Manassas, Va.) were cultured in Roswell Park Memorial Institute (RPMI) 1640 Medium (Catalog #21870-100, Buffalo, N.Y.) with 1% L-glutamine, 1% HEPES, 1% Sodium Pyruvate, 2% Sodium Bicarbonate supplemented with 100 units/mL penicillin, 50 μg/mL streptomycin, 2-mercaptoethanol (0.05 mM) [basal medium] and 10% fetal bovine serum (Catalog #16140089, Life Technologies, Carlsbad, Calif.) at 37° C. and 5% CO2.
THP-1 cells were cultured in basal media with 1% FBS for 24 hours before the start of the assay. Each compound was dissolved in DMSO as a 10 mM stock and used to prepare compound source plates. Serial dilution (1:3, 10-point dose-response curves starting from 10 μM) and compound transfer was performed using the ECHO 550 (Labcyte, Sunnyvale, Calif.) into 384-well white low volume assay plates (Greiner Bio-One) with appropriate DMSO backfill for a final DMSO concentration of 0.1%. THP-1 cells were plated at 5000 cells/well in the 384-well plates and incubated at 37° C. for 2 h. 500 ng/mL of LPS was added after 2 hours and cells were incubated for another 22 hours at 37° C. Plates were spun in a centrifuge for 1 minute at […] and a mixture of anti-IL6 XL665, and anti-IL6 Cryptate diluted in reconstitution buffer (Cisbio Inc.) was added to each well. Following incubation for 3 hrs at room temperature, Homogeneous Time-Resolved Fluorescence (HTRF) was measured using the Envision (Perkin Elmer) at 665 nm and […]. The ratio of fluorescence at 665 nm to 620 nm was used as a readout for IL6 quantification. All samples were processed in duplicate. Readings were normalized to DMSO treated cells and normalized activities were utilized for EC50 calculations using the dose-response log (inhibitor) vs. response-variable slope (four parameters) nonlinear regression feature available in GraphPad Prism 5.0 (or Dotmatics). For EC50 of >10 μM, the percent inhibition at […] is provided.

The term EC50 denotes the concentration giving half of the maximal effect. Consider `CC(C)(C)C(=O)Nc1cncc(-c2ccc3[nH]nc(-c4cc5c(-c6cccc(F)c6)cncc5[nH]4)c3n2)c1` [Compound 8, N-(5-(3-(4-(3-Fluorophenyl)-1H-pyrrolo[2,3-c]pyridin-2-yl)-1H-pyrazolo [4,3-b]pyridin-5-yl)pyridin-3-yl)pivalamide], for which the EC50 was found to be 2.31 µM in test [1], 1.21 µM in the test with SW480 colon cancer cells, 1.97 µM in test [2] and 0.228 µM with IL-6.

One may read the inhibition as how much of the control response was suppressed. For the compound `O=C(Nc1cncc(-c2ccc3[nH]nc(-c4cc5c(-c6cccc(F)c6)cncc5[nH]4)c3n2)c1)C1CCCCC1` [Compound 23, N-(5-(3-(4-(3-Fluorophenyl)-1H-pyrrolo[2,3-c]pyridin-2-yl)-1H-pyrazolo [4,3-b]pyridin-5-yl)pyridin-3-yl)cyclohexanecarboxamide], the EC50 is 0.718 µM in test [1], 1.07 µM with SW480 colon cancer cells, 1.46 µM in test [2] and > 10 µM in the test with IL-6. Also, the inhibition at 10 µM in the test on IL-6 was 1%.

Regarding `Fc1ccc(-c2cncc3[nH]c(-c4n[nH]c5ccc(-c6ccccn6)nc45)cc23)cc1` [Compound 56, 3-(4-(4-Fluorophenyl)-1H-pyrrolo[2,3-c]pyridin-2-yl)-5-(pyridin-2-yl)-1H-pyrazolo[4,3-b]pyridine], the EC50 in test [1] is 1.3 µM; with SW480 colon cancer cells, 1.12 µM; in test [2], 2.33 µM; in the test on IL-6, > 10 µM. For the same compound, the inhibition at 10 µM with IL-6 was 32.6%.

For `CC(C)CC(=O)Nc1cncc(-c2ccc3[nH]nc(-c4cc5c(-c6ccccc6F)cncc5[nH]4)c3n2)c1` [Compound 58, N-(5-(3-(4-(2-Fluorophenyl)-1H-pyrrolo[2,3-c]pyridin-2-yl)-1H-pyrazolo [4,3-b]pyridin-5-yl)pyridin-3-yl)-3-methylbutanamide], the half-maximal effective concentration (EC50) was 0.697 µM in test [1], 0.413 µM in the test with SW480 colon cancer cells, 0.702 µM in test [2] and 0.085 µM in the test on IL-6.

As for `O=C(Nc1cncc(-c2ccc3[nH]nc(-c4cc5c(-c6ccccc6F)cncc5[nH]4)c3n2)c1)C1CC1` [Compound 76, N-(5-(3-(4-(2-Fluorophenyl)-1H-pyrrolo[2,3-c]pyridin-2-yl)-1H-pyrazolo [4,3-b]pyridin-5-yl)pyridin-3-yl)cyclopropanecarboxamide], the EC50 in test [1] worked out at 2.04 µM; in the test on SW480 colon cancer cells it was 0.897 µM; in test [2], 1.42 µM; in the test with IL-6, 0.157 µM.

With `Fc1ccccc1-c1cncc2[nH]c(-c3n[nH]c4ccc(-c5cncc(CNCc6ccccc6)c5)nc34)cc12` [Compound 80, N-Benzyl-1-(5-(3-(4-(2-fluorophenyl)-1H-pyrrolo[2,3-c]pyridin-2-yl)-1H-pyrazolo[4,3-b]pyridin-5-yl)pyridin-3-yl)methanamine], the EC50 in test [1] turned out to be 4.6 µM; in the test with SW480 colon cancer cells it was 6.73 µM; in test [2] it was 3.98 µM; with IL-6, 5.79 µM.

`CC(C)Nc1cncc(-c2ccc3[nH]nc(-c4cc5c(-c6cccnc6)cncc5[nH]4)c3n2)c1` [Compound 96, N-Isopropyl-5-(3-(4-(pyridin-3-yl)-1H-pyrrolo[2,3-c]pyridin-2-yl)-1H-pyrazolo[4,3-b]pyridin-5-yl)pyridin-3-amine]: the EC50 is > 10 µM in test [1], 1.38 µM in the test with SW480 colon cancer cells, 1.73 µM in test [2] and 0.12 µM in the test with IL-6. Moreover, the inhibition at 10 µM in test [1] (given for EC50 >10 μM, TGF-β1, αSMA, 10 μM, read-out: percent inhibition at 10 μM) came to 0%.

Take `CCNCc1cncc(-c2ccc3[nH]nc(-c4cc5ccncc5[nH]4)c3n2)c1` [Compound 258, N-((5-(3-(1H-Pyrrolo[2,3-c]pyridin-2-yl)-1H-pyrazolo[4,3-b]pyridin-5-yl)pyridin-3-yl)methyl)ethanamine]: the EC50 in test [1] came to 6.63 µM; in the test on SW480 colon cancer cells it was 3.58 µM; in test [2], 8.45 µM; in the test on IL-6, 0.873 µM.
